Test results as given in the NIST ThermoML archive (doi:10.1016/j.jct.2010.04.013).
Numbers after ± are expanded uncertainties.

Assay: mn = molality of the nth substance listed, in mol/kg
Conditions: 101 kPa, Liquid; for mass density: Vibrating tube method; for speed of sound: Pulse-echo method

O=S(=O)([O-])C(F)(F)F.O=S(=O)([O-])C(F)(F)F.[Be+2] [beryllium 1,1,1-trifluoromethanesulfonate] + CO
Conditions	mass density, 283.15 K [kg/m3]	mass density, 288.15 K [kg/m3]	mass density, 293.15 K [kg/m3]	mass density, 298.15 K [kg/m3]	mass density, 303.15 K [kg/m3]	mass density, 308.15 K [kg/m3]	mass density, 313.15 K [kg/m3]	speed of sound, 298.15 K [m/s]
m1 = 0.05456	809.901 ± 0.22	805.251 ± 0.22	800.58 ± 0.22	795.899 ± 0.23	791.207 ± 0.23	786.489 ± 0.23	781.742 ± 0.23	1105.4 ± 1.2
m1 = 0.06745	812.098 ± 0.22	807.453 ± 0.22	802.786 ± 0.22	798.111 ± 0.22	793.424 ± 0.23	788.711 ± 0.23	783.973 ± 0.23	1106.2 ± 1.2
m1 = 0.08472	815.041 ± 0.22	810.402 ± 0.22	805.745 ± 0.22	801.074 ± 0.22	796.384 ± 0.23	791.686 ± 0.23	786.956 ± 0.23	1107.2 ± 1.2
m1 = 0.1077	818.969 ± 0.22	814.336 ± 0.22	809.691 ± 0.22	805.032 ± 0.22	800.359 ± 0.23	795.664 ± 0.23	790.942 ± 0.23	1108.5 ± 1.2
m1 = 0.1249	821.918 ± 0.22	817.294 ± 0.22	812.65 ± 0.22	807.996 ± 0.22	803.329 ± 0.23	798.644 ± 0.23	793.931 ± 0.23	1109.5 ± 1.2
m1 = 0.1421	824.885 ± 0.22	820.267 ± 0.22	815.629 ± 0.22	810.983 ± 0.22	806.316 ± 0.23	801.638 ± 0.23	796.936 ± 0.23	1110.3 ± 1.2
m1 = 0.1594	827.866 ± 0.22	823.252 ± 0.22	818.621 ± 0.22	813.979 ± 0.23	809.325 ± 0.23	804.652 ± 0.23	799.953 ± 0.23	1111.1 ± 1.2
m1 = 0.177	830.948 ± 0.22	826.34 ± 0.22	821.715 ± 0.23	817.077 ± 0.23	812.425 ± 0.23	807.764 ± 0.23	803.073 ± 0.23	1111.9 ± 1.2

C[S+](C)[O-] [dimethyl sulfoxide] + O=S(=O)([O-])C(F)(F)F.[Na+]
m2 = 0
Conditions	mass density [kg/m3]
293.15 K	1100.21 ± 0.18
298.15 K	1095.18 ± 0.18
303.15 K	1090.16 ± 0.18
313.15 K	1080.11 ± 0.22
323.15 K	1090.07 ± 0.44
333.15 K	1080.03 ± 0.68

[Mg+2].[O-][Cl+3]([O-])([O-])[O-].[O-][Cl+3]([O-])([O-])[O-] [magnesium perchlorate] + C[S+](C)[O-]
Conditions	mass density, 293.15 K [kg/m3]	mass density, 298.15 K [kg/m3]	mass density, 303.15 K [kg/m3]	mass density, 313.15 K [kg/m3]	mass density, 323.15 K [kg/m3]	mass density, 333.15 K [kg/m3]	speed of sound, 298.15 K [m/s]
m1 = 0.02171	1103.82 ± 0.23	1098.81 ± 0.23	1093.8 ± 0.23	1083.79 ± 0.23	1073.79 ± 0.23	1063.78 ± 0.23	–
m1 = 0.03119	1105.4 ± 0.23	1100.4 ± 0.23	1095.39 ± 0.23	1085.4 ± 0.23	1075.41 ± 0.23	1065.42 ± 0.23	1486.8 ± 1.3
m1 = 0.04163	1107.14 ± 0.23	1102.15 ± 0.23	1097.16 ± 0.23	1087.18 ± 0.23	1077.2 ± 0.23	1067.23 ± 0.23	1487.7 ± 1.3
m1 = 0.05295	1109.04 ± 0.23	1104.04 ± 0.23	1099.06 ± 0.23	1089.1 ± 0.23	1079.15 ± 0.23	1069.19 ± 0.23	1488.7 ± 1.3
m1 = 0.06473	1111.01 ± 0.23	1106.03 ± 0.23	1101.06 ± 0.23	1091.11 ± 0.23	1081.18 ± 0.23	1071.25 ± 0.23	1489.7 ± 1.3
m1 = 0.08226	1113.97 ± 0.24	1109 ± 0.24	1104.04 ± 0.23	1094.12 ± 0.23	1084.21 ± 0.23	1074.31 ± 0.23	1491.1 ± 1.3
m1 = 0.1041	1117.67 ± 0.24	1112.71 ± 0.24	1107.76 ± 0.24	1097.88 ± 0.24	1088 ± 0.23	1078.12 ± 0.23	1493 ± 1.3
m1 = 0.1277	1121.69 ± 0.24	1116.74 ± 0.24	1111.81 ± 0.24	1101.96 ± 0.24	1092.12 ± 0.24	1082.29 ± 0.24	1494.8 ± 1.3
m1 = 0.1481	1125.19 ± 0.24	1120.27 ± 0.24	1115.34 ± 0.24	1105.52 ± 0.24	1095.7 ± 0.24	1085.9 ± 0.24	1496.7 ± 1.3
m1 = 0.1734	1129.53 ± 0.25	1124.62 ± 0.25	1119.72 ± 0.24	1109.94 ± 0.24	1100.17 ± 0.24	1090.39 ± 0.24	1498.8 ± 1.3
m1 = 0.1952	1133.31 ± 0.25	1128.4 ± 0.25	1123.52 ± 0.25	1113.77 ± 0.25	1104.03 ± 0.24	1094.3 ± 0.24	1500.8 ± 1.3

C[S+](C)[O-] [dimethyl sulfoxide] + [Mg+2].[O-][Cl+3]([O-])([O-])[O-].[O-][Cl+3]([O-])([O-])[O-]
m2 = 0
Conditions	mass density [kg/m3]
293.15 K	1100.21 ± 0.23
298.15 K	1095.18 ± 0.23
303.15 K	1090.16 ± 0.23
313.15 K	1080.12 ± 0.23
323.15 K	1070.08 ± 0.23
333.15 K	1060.02 ± 0.22
